Reference: publication PMC4435632, “Phase 1 study of ixazomib, an investigational proteasome inhibitor, in advanced non-hematologic malignancies” (Investigational New Drugs, 2015)

Experiments:
[1] = Plasma ixazomib pharmacokinetics (LC/MS/MS, noncompartmental); type: in vivo
Description: Blood samples for determination of plasma ixazomib concentrations for pharmacokinetic analysis (3 mL) and for measurement of whole blood 20S proteasome activity (1 mL) were collected at the following timepoints for all patients in the dose-escalation cohort and for the first 12 patients completing cycle 1 while receiving protocol-specified treatment at the MTD: pre-dose (within 1 h) on days 1, 4, 8, and 11 of cycle 1, and on day 1 of cycle 2; and on days 1 and 11, cycle 1, at 5, 15 and 30 min, and 1, 2, 4, 9, 24, 48, 96 (day 11 only), 120 (day 11 only), and 168 (day 11 only) h post-dose. A limited sampling schedule was employed for the remaining patients in the MTD expansion cohorts.
Plasma concentrations of ixazomib were measured using a good laboratory practice-validated liquid chromatography/tandem mass spectrometry (LC/MS/MS) assay with a lower limit of quantification of 0.5 ng/mL. Whole blood 20S proteasome activity (expressed as percent proteasome inhibition relative to baseline) was measured using an established fluorogenic assay, which evaluates the chymotrypsin-like activity of the β5 subunit of the 20S proteasome, the primary target of ixazomib. […]
All efficacy and safety data were summarized using descriptive statistics. Pharmacokinetic and pharmacodynamic parameters were calculated using noncompartmental methods (WinNonlin software v5.3).

[2] = system: patients with advanced non-hematologic malignancies; assay: Dose-limiting toxicities in cycle 1 and determination of MTD; type: in vivo
Description: The dose-escalation cohort comprised patients with any non-hematologic malignancy. The four MTD expansion cohorts were limited to patients with non-small cell lung cancer (NSCLC), head and neck cancer (squamous cell cancer), soft tissue sarcoma, and prostate cancer, respectively. In addition, the TPEC was open to patients with non-hematologic malignancy that could be safely biopsied. Dose escalation initially proceeded from a starting dose of 0.125 mg/m^2 of body surface area, with one patient per dose level and dose doubling up to a dose of 1.0 mg/m^2. Dose doubling was permitted until one of the following occurred: one patient experienced a dose-limiting toxicity (DLT) during cycle 1; any two patients experienced a drug-related adverse event (AE) of grade ≥2 during cycle 1; or the dose level of 1 mg/m^2 had been evaluated. Dose escalation then proceeded in 33 % increments following a standard 3 + 3 schema based on the occurrence of DLTs in cycle 1. […]
The safety population included all patients who received ≥1 dose of ixazomib, and the DLT-evaluable population, which was used for determination of the MTD, comprised patients who received all cycle 1 doses of ixazomib or experienced a DLT in cycle 1. […] Approximately 16 response-evaluable patients were planned to be evaluated in each MTD expansion cohort.

Structure (SMILES): CC(C)C[C@H](NC(=O)CNC(=O)c1cc(Cl)ccc1Cl)B(O)O [ixazomib]
- C0 (extrapolated immediate post-bolus plasma concentration) ([1]; day 1, 2.34 mg/m^2 IV, n = 1, individual value): 901 ng/mL
- t½ (terminal disposition phase half-life) ([1]; day 11, 1.33 mg/m^2 IV, n = 3, geometric mean (% CV)): 145 (19) h
- Decrease of mean plasma concentrations ([1]; human, in vivo, 8 h): approximately 90%
- Accumulation of ixazomib ([1]; human, in vivo, 11 day of cycle 1): approximately 3 fold
- half-life ([1]; human, in vivo, iv): 91.2 to 173 h
- C0 ([1]; human, in vivo, iv, 0.125 mg/m2, C0 (extrapolated immediate post-bolus plasma concentration)): 27.1 ng/mL
- AUC(0-t) ([1]; human, in vivo, iv, 0.25 mg/m2, AUC0–72): 60.9 ng·h/mL
- C0 ([1]; human, in vivo, iv, 0.25 mg/m2, C0 (extrapolated immediate post-bolus plasma concentration)): 69 ng/mL
- half-life ([1]; human, in vivo, iv, 1 mg/m2): 172 h
- C0 ([1]; human, in vivo, iv, 1 mg/m2, C0 (extrapolated immediate post-bolus plasma concentration)): 273 ng/mL
- C0 ([1]; human, in vivo, iv, 1.33 mg/m2, C0 (extrapolated immediate post-bolus plasma concentration)): 390 ng/mL
- half-life ([1]; human, in vivo, iv, 1.76 mg/m2): 110 h
- C0 ([1]; human, in vivo, iv, 1.76 mg/m2, C0 (extrapolated immediate post-bolus plasma concentration)): 556 ng/mL
- half-life ([1]; human, in vivo, iv, 2.34 mg/m2): 90.8 h
- C0 ([1]; human, in vivo, iv, 2.34 mg/m2, C0 (extrapolated immediate post-bolus plasma concentration)): 869 ng/mL
- Plasma exposure versus dose ([1]; in vivo): appeared to increase proportionally with increasing ixazomib dose
- MTD (maximum tolerated dose) ([2]; IV on days 1, 4, 8, and 11 of a 21-day cycle): 1.76 mg/m^2
- Patients who experienced DLTs ([2]; in vivo): Five
